Measurements as given in patent USRE40278E1, “Heterocyclic amines having central nervous system activity” (priority 1993, dated 2008).

Columns and labels:
5-HT1DA-Clone = target: T1, 5-HT1DA-Clone (Homo sapiens, UniProt P28221); test: receptor binding assay, 5-HT1DA clone (5HT ligand)
T1 construct: expressed in transfected cells
Method: (§1) Compounds of Example 4 (Formula I where R1 and R2 are propyl, Y is hydrogen and X is —OCH3) were evaluated in an receptor binding assay (5HT Ligand) for calculation of IC50 values and Ki (nM) values. Receptor binding assays are well known tests for evaluating compounds for activity as described in “Cloning and Pharmacological Characterization of a Novel Human […] Receptor Sub-Type”, Mol. Pharm., 42 439-44 (1992), herein incorporated by reference.

5-HT1DB-Clone = target: T2, 5-HT1DB-Clone (Homo sapiens, UniProt P28222); test: receptor binding assay, 5-HT1DB clone (5HT ligand)
T2 construct: expressed in transfected cells
T2 sequence (P28222 whole entry): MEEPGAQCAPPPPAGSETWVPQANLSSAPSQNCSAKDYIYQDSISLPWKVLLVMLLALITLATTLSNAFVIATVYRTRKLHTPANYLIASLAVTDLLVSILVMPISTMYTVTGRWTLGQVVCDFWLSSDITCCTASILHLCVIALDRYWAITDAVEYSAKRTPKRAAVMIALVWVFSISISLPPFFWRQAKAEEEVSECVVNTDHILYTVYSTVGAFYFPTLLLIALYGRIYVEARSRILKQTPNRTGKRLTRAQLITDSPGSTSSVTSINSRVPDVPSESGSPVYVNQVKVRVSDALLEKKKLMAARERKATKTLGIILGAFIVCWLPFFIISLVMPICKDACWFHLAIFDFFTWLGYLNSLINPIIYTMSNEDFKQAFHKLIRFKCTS
Method: as §1

5-HT1A-Clone = target: T3, 5-HT1A-Clone (Homo sapiens, UniProt P08908); test: receptor binding assay, 5-HT1A clone (DPAT ligand)
T3 construct: expressed in transfected cells
T3 sequence (P08908 1-422): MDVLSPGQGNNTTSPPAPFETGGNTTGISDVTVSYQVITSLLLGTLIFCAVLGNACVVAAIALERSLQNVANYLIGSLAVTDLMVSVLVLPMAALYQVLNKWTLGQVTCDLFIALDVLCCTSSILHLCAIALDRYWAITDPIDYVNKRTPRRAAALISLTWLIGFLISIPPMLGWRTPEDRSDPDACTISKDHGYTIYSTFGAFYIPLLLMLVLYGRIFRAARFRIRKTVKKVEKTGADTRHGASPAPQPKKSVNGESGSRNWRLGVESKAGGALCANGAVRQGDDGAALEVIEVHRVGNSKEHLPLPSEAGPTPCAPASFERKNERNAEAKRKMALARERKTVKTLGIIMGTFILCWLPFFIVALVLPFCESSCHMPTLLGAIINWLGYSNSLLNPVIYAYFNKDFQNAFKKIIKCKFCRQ
Method: as §1

[1] = system: aggressive behavior of isolated male CF-1 mice; test: isolation-induced aggression assay (latency to attack an intruder mouse); type: in vivo; settings: isolated male CF-1 mice dosed p.o., intruder introduced thirty minutes later, n=6
Method: Compounds of the subject invention were evaluated in an isolation-induced aggression assay to measure their ability to control or arrest aggressive behavior as measured against a saline “Control”. Male CF-1 mice (Charles River Labs) were housed singly in wire cage drawers for several weeks of isolation and aggression training. After this, the isolated mouse (weighing 30-50 g) initiated an “attack” whenever an intruder mouse was placed into his cage. Intruders were male CF-1 Charles River mice, about the same size as isolated mice and housed in groups of 12 per cage. For drug testing, the isolated mice were dosed orally (p.o.) with drug or 0.25% methylcellulose vehicle. Thirty minutes later, an intruder mouse was introduced and the latency to attack was recorded. Treatment groups (n=6), including a positive control, were tested by an observer blinded to the treatments, and there was an additional non-blinded vehicle group.

T1 sequence (P28221 whole entry): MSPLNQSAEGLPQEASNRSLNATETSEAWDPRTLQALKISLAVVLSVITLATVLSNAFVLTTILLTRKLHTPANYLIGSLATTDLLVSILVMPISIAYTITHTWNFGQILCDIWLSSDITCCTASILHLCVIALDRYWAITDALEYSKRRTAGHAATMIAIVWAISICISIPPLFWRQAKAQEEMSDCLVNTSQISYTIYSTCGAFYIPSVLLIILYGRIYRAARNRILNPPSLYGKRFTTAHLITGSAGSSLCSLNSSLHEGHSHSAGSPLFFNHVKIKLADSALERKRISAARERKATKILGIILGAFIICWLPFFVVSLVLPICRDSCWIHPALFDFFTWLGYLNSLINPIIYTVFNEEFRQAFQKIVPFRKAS

| SMILES | Ki (5-HT1DA-Clone) [nM] | Ki (5-HT1DB-Clone) [nM] | receptor selectivity (in words) (5-HT1DB-Clone; 5-HT1DB versus 5-HT1DA, conclusion from the Ki table) | Ki (5-HT1A-Clone) [nM] | enantiomer that carries the activity (in words) (5-HT1A-Clone; comparison of R- and S-enantiomer, conclusion from the Ki table) | latency to attack [1] [s] |
| --- | --- | --- | --- | --- | --- | --- |
| CCCN(CCC)C1Cc2cccc3c2n(c(=O)n3OC)C1 (racemic) [Ex. 4 Racemate] | 15.2 | 7.17 | selective for the 5HT1DB receptor | – | – | – |
| CCCN(CCC)[C@@H]1Cc2cccc3c2n(c(=O)n3OC)C1 [Ex. 4 R-Enantiomer, (R)-5-Dipropylamino-1-methoxy-5,6-dihydro-4H-imidazo[4,5,1-ij]quinolin-2(1H)-one] | 38 | 58 | – | 97 | the activity resides in the R-enantiomer | – |
| CN[C@@H]1Cc2cccc3c2n(c(=O)n3OC)C1 [Example 1, (R)-5-Methylamino-1-methoxy-5,6-dihydro-4H-imidazo[4,5,1-ij]quinolin-2(1H)-one] | – | – | – | – | – | 600 |
| CCCN(CCC)[C@H]1Cc2cccc3c2n(c(=O)n3OC)C1 [Ex. 4 S-Enantiomer] | – | – | – | 904 | – | – |
